The supplement of paper PMC12076712

Columns and labels:
Assay in all cases: pIC50, kinobeads binding competition
Conditions in all cases: cell material: Jurkat lysate
AAK1 = AAK1 (UniProt Q2M2I8)
BRSK1 = target: T1, BRSK1 (UniProt Q8TDC3)
T1 sequence (whole entry): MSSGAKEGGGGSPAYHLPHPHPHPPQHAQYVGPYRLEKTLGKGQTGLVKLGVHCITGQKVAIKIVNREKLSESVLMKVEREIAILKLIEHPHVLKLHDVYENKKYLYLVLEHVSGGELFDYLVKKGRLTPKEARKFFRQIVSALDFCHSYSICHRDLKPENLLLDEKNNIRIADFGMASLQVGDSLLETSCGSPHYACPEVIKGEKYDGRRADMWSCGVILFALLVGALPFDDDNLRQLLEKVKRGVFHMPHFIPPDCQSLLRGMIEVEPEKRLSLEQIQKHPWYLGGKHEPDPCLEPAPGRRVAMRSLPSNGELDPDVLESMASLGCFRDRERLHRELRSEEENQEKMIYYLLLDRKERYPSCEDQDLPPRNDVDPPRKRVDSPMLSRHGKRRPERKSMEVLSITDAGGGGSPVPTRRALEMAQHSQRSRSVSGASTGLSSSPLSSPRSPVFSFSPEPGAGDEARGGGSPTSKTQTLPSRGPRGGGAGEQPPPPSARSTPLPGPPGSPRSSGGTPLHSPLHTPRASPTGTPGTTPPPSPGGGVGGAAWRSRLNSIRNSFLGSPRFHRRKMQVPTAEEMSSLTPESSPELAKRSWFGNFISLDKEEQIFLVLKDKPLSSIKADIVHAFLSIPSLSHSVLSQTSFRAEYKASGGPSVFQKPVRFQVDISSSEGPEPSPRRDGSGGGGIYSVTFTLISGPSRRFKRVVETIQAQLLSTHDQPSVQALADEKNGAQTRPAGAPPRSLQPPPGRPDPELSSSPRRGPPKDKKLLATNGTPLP

FER = FER (UniProt P16591)
FER, sequence (P16591 whole entry, looked up): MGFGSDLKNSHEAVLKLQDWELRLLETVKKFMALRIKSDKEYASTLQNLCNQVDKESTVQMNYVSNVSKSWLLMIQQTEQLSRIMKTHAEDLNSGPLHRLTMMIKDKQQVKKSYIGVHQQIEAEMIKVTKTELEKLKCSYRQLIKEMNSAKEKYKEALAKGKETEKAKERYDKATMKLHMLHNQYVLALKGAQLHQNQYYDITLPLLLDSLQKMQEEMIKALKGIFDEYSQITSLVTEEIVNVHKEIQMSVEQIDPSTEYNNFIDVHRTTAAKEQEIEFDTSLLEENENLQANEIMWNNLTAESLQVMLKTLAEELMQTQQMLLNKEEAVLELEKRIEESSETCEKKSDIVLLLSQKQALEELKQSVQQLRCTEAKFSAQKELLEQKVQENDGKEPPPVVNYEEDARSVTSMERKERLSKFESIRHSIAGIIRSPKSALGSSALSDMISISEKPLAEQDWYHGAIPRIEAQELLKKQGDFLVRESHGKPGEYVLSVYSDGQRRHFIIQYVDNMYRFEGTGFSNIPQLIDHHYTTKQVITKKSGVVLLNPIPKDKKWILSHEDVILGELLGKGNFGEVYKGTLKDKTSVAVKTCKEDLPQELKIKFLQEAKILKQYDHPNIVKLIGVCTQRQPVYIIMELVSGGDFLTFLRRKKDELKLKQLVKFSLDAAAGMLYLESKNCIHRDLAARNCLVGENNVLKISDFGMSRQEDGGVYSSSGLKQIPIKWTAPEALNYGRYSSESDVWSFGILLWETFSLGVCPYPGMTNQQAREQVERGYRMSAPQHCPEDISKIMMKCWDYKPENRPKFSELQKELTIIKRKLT

ICK = target: T2, ICK (UniProt Q9UPZ9)
T2 sequence (whole entry): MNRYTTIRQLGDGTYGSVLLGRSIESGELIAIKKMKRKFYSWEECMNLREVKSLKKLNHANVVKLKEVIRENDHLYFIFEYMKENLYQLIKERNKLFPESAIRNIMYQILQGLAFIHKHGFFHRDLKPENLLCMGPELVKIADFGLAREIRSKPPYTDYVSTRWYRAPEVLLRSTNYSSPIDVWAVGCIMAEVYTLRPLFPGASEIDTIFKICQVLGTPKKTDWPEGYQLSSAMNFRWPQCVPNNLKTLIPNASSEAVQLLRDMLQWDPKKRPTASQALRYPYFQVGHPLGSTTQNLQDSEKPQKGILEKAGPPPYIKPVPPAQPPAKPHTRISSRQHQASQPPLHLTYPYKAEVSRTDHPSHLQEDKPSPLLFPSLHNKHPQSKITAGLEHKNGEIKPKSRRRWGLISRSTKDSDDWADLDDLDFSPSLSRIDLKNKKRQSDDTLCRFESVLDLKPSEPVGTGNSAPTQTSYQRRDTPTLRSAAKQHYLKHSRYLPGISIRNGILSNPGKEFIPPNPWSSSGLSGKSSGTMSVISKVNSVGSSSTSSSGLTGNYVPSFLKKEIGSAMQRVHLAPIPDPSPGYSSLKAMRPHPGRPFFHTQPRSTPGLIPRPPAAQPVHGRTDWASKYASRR

NEK3 = target: T3, NEK3 (UniProt P51956)
T3 sequence (whole entry): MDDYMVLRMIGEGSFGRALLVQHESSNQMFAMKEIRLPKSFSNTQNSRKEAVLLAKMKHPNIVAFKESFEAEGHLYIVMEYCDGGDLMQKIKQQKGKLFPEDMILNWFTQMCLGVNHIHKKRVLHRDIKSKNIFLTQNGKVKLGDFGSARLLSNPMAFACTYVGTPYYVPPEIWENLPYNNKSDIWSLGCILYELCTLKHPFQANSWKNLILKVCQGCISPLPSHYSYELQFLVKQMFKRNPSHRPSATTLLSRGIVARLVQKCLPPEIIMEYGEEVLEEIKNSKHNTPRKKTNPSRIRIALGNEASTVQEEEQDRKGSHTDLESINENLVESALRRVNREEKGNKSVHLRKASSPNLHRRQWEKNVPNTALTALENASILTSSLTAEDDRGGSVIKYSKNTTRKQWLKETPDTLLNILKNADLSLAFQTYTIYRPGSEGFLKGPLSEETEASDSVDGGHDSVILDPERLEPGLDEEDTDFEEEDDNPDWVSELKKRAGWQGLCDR

PLK1 = PLK1 (UniProt P53350)
PLK1, sequence (P53350 whole entry): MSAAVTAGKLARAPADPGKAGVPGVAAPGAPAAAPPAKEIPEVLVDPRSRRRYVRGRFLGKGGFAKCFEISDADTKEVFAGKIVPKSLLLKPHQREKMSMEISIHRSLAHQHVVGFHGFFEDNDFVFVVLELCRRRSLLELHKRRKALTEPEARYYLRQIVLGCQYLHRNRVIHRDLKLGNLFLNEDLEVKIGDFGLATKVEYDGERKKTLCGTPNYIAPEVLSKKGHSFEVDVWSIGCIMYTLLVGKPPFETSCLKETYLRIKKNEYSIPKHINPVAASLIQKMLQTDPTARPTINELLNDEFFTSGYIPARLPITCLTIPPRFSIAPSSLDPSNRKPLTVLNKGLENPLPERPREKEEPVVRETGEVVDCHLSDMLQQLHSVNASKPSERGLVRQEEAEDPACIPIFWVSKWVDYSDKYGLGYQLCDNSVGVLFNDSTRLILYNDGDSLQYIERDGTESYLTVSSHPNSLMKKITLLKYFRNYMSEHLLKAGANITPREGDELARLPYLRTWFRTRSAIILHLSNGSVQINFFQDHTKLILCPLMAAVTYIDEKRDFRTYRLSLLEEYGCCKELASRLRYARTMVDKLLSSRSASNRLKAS

SGK3 = target: T4, SGK3 (UniProt Q96BR1)
T4 sequence (whole entry): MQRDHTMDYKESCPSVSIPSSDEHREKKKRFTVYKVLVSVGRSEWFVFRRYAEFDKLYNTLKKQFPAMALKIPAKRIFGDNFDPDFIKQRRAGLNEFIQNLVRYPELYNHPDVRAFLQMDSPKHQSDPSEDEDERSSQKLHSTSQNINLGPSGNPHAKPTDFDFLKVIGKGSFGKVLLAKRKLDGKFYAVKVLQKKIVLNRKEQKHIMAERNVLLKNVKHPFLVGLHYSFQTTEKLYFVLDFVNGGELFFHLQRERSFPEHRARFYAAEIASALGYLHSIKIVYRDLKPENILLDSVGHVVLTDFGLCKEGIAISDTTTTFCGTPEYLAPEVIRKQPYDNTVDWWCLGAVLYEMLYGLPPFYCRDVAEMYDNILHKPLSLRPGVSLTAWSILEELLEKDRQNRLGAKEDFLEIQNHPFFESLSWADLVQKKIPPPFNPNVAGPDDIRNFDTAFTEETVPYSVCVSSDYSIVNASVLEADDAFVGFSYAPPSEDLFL

SRC = SRC (UniProt P12931)
SRC, sequence (P12931 whole entry, looked up): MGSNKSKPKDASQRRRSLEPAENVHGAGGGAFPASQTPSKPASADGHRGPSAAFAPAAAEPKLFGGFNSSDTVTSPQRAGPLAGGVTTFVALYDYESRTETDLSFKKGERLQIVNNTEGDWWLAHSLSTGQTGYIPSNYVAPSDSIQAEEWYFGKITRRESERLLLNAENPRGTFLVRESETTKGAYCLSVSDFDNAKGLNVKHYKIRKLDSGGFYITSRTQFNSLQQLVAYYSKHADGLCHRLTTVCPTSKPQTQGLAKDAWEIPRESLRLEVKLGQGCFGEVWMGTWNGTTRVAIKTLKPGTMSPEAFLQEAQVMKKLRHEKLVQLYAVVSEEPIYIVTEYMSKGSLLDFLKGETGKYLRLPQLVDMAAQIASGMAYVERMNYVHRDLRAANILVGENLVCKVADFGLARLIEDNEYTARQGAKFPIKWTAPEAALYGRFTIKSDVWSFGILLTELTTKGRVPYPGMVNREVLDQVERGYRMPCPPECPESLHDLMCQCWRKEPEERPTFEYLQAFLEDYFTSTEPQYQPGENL

UniProt O75716 = target: UniProt O75716
UniProt O75716, sequence (O75716 whole entry): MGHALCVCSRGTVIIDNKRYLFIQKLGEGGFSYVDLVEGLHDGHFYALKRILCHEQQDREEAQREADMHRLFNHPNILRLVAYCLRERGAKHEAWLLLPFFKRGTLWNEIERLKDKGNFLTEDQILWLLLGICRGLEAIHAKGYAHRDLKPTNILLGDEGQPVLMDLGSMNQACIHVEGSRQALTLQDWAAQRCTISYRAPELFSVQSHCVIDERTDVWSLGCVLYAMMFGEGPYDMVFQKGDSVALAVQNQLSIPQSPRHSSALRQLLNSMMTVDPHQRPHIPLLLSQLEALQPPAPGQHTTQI

AAK1, sequence (Q2M2I8 whole entry, looked up): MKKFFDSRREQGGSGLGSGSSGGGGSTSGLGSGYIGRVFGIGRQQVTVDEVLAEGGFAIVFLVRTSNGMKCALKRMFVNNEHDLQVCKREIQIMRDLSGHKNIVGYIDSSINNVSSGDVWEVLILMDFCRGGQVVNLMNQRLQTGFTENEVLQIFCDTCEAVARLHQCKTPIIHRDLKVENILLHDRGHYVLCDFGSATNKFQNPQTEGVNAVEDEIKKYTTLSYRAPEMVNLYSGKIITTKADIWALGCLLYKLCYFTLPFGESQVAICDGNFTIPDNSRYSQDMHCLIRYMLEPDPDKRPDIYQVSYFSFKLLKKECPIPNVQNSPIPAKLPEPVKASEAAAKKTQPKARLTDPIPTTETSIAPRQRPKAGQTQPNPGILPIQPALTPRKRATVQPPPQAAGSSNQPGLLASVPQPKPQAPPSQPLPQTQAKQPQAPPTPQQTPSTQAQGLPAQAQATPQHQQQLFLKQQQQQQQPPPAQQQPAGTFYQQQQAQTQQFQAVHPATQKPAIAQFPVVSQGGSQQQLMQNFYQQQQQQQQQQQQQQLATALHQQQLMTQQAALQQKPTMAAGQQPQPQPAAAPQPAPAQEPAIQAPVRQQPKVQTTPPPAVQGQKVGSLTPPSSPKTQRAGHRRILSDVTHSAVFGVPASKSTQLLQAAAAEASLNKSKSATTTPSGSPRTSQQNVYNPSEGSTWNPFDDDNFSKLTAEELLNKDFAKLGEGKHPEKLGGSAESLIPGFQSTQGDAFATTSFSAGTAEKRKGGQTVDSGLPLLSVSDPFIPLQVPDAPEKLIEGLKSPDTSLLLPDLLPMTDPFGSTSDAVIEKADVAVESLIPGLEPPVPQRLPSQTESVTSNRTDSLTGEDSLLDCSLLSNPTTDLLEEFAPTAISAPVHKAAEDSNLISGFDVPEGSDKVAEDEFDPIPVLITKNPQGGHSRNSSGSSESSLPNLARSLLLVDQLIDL

- pIC50 (AAK1): < 4.52
- pIC50 (BRSK1): < 4.52
- pIC50 (FER): < 4.52
- pIC50 (ICK): 6.39
- pIC50 (NEK3): < 4.52
- pIC50 (PLK1): < 4.52
- pIC50 (SGK3): < 4.52
- pIC50 (SRC): < 4.52
- pIC50 (UniProt O75716): < 4.52
SMILES: CCc1cnn2c(NCc3ccc[n+]([O-])c3)cc(N3CCCC[C@H]3CCO)nc12 [dinaciclib]
